# System: HepG2 cells
# Test: Nude mouse model of hepatocellular carcinoma (HepG2), growth rate
# Assay type: in vivo, nude mice
# Details: nude mouse model, 75 mg/kg, twice a day, versus blank carrier control
# Protocol: In contrast, LD30 (1 mg/kg/time, twice a day) reduced the growth rate of HepG2 cells by about 63%, with statistical significance (p<0.05) when compared with the ethanol control.
# LD030 was also compared with Nexavar for their effects on the growth rate of HepG2 cells.
# A further study was conducted on liver cancer cell line in nude mice (HepG2), where Nexavar's dosage was 30 mg/kg, twice a day and LD030's dosage was 1 mg/kg, twice a day along with a blank control and a combination of LD030 and Nexavar. The result is shown in FIG. 21 where Nr stands for Nexavar. […] When compared with the blank, LD030's effect is statistically significant (p<0.05).
smiles,measurement,value
"CNC(=O)c1cc(Oc2ccc(NC(=O)Nc3ccc(Cl)c(C(F)(F)F)c3)cc2)ccn1 [Nexavar, reference compound]",reduction of growth rate of HepG2 cells,about 80%

# Source: patent US9522935B2, “Commands and method of treating cancer via RHO pathway” (priority 2013, dated 2016)
